Assay results from article PMC4159282, “Gi Proteins Regulate Adenylyl Cyclase Activity Independent of Receptor Activation” (PLoS ONE, 2014).

Biological target: T1, β2-adrenoceptor (β2AR) (Rattus norvegicus, UniProt P10608)
T1 construct: gene Adrb2
T1 sequence (P10608 whole entry): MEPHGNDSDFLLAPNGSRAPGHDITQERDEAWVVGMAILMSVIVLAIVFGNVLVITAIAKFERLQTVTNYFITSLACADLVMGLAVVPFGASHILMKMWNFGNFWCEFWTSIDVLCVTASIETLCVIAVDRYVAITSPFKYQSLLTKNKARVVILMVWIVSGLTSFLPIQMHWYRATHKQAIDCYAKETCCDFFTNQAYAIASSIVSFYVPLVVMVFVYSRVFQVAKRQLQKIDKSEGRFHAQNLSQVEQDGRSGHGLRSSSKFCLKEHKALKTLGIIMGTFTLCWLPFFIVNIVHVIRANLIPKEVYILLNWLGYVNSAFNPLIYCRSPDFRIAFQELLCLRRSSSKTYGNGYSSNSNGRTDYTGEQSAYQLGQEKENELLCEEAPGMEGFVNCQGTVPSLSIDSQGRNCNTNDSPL

SMILES	EC50 [nM]
C[C@H](Cc1ccc(O)cc1)NC[C@H](O)c1cc(O)cc(O)c1 [RR, (R,R)-fenoterol]	140 ± 48
C[C@@H](Cc1ccc(O)cc1)NC[C@H](O)c1cc(O)cc(O)c1 (racemic) [RS, (R,S)-fenoterol]	3500 ± 500
